Test results as given in patent publication US20110065674A1, “METHODS AND COMPOSITIONS FOR IMPROVING COGNITIVE FUNCTION” (priority 2008, published 2011).
“Also recorded” adds a separate entry of the source.

How the values were obtained:
[1] = tested on: Age-Impaired (AI) Long-Evans rats; assay: 24 hour-delay Morris Water Maze memory retention trial in aged-impaired rats; type: in vivo, rat; conditions: for spatial memory retention (time in target quadrant) in 24-hr retention trial: donepezil alone 0.5, 1.0 and 2.0 mg/kg i.p. before training
Procedure: Age-Impaired (AI) Long-Evans rats (as characterized above) were tested for their memory of new spatial information in the MWM, under different drug/control treatment conditions: vehicle control, donezepil only, VPA only, and combination of VPA and donezepil. Donezepil was administered at a range of doses (0.5, 1.0 or 2.0 mg/kg) 30 minutes to 1 hour prior to training trials. VPA was administered chronically and subcutaneously at a rate of 100 mg/kg/day via implanted osmotic minipump.
AI rats were given six training trials per training day with a 60-sec inter-trial interval between each training trial for two consecutive days. On each training trial, the rat was released in the maze from one of four equally spaced starting positions around the perimeter of the pool. […] 30 minutes to 1 hour prior to all the training trials on each training day, AI rats were pretreated with one of four drug conditions: 1) vehicle control (0.9% saline solution); 2) 0.5 mg/kg donpepzil; and 3) 1.0 mg/kg donpepzil; and 4) 2.0 mg/kg donpepzil through intraperitoneal (i.p.) injection.
The same AI rats were used for the entire set of experiments so that each treatment condition was tested on each of the rats. Therefore, to counterbalance any potential bias, both the location of the escape platform and the spatial cues surrounding the water maze were different in the four treatment conditions. In other words, using one set of locations and spatial cues, two rats were treated with saline control solution, two with 0.5 mg/kg donpepzil, two with 1.0 mg/kg donpepzil and two with 2.0 mg/kg donpepzil. These groups were cycled through 3 more sets of locations and spatial cues, with each group of two receiving a different treatment each time, so that at the end, each treatment condition was tested in eight rats.
After the completion of the twelve training trials (over the two days), the rats were returned to their home cages in the colony room for a 24-hr waiting period, in preparation for the subsequent memory retention test. After the waiting period, the rat was given one testing trial (the “retention trial”), which was the same MWM task as the training trials, but with the escape platform removed.
For the retention trial, the MWM circular pool was divided into 4 quadrants. The particular quadrant where the escape platform was placed in the training trials is referred to as the “target quadrant”. The particular region where the platform was located in the training trials is referred to as the “target annulus”. In the retention trial, the time the AI rats spent swimming in the target quadrant was measured and further plotted as a percentage of total swimming time. The time the AI rats spend in the target annulus was also measured. […]

[2] = Blood total VPA level under chronic subcutaneous administration; type: in vivo, rat; conditions: chronic subcutaneous administration of 100 mg/kg/day
Procedure: (§1) AI Rats were treated with sodium valproate (“VPA”) chronically and subcutaneously at a rate of 100 mg/kg/day via implanted osmotic minipump, and then trained and tested in a new water maze environment. The water maze used here was housed in a different building and was surrounded by black curtains with a novel set of white patterns. The training protocol used was based on a modified water maze task known to be highly hippocampal-dependent (de Hoz et al., 2005; Steele & Morris, 1999). Unlike the traditional water maze protocol (such as that used in the background assessment, described above) wherein the escape platform location remained constant throughout training, the escape platform location in this spatial memory version of the task varied from day to day.
After the 6-hr waiting period, the rats were returned to the water maze for a test of spatial memory with the submerged platform located in the same position as in the training trials. Each rat was given 60 s to locate the platform. Rats were trained and tested in this manner for five consecutive days. Performances on the last three days were averaged for analysis. […] The chronic subcutaneous administration of 100 mg/kg/day VPA results in a blood total VPA level of 10 μg/ml plasma (10 μg/ml total VPA).

[3] = tested on: memory impaired aged rats; assay: 6 hour-delay water maze spatial memory task in aged-impaired rats; type: in vivo, rat; conditions: AI rats, FIG. 2
Procedure: as §1
The test was comprised of a training phase followed by a memory retention test. Each day, during the training phase, rats were given six trials to locate the submerged escape platform. On each trial, a rat was released in the maze from one of four equally spaced starting positions around the perimeter of the pool. The starting position varied from trial to trial. […] The rat was then removed from the platform and placed in a holding cage for another 40 s before the next trial. The length of the path the rat took while swimming in the maze was measured in each trial. […]

[4] = tested on: muscarinic receptor; assay: Muscarinic receptor-stimulated GTP-Eu binding assay on hippocampal membranes of treated rats; type: biochemical, rat; conditions: chronic low dose valproate, memory impaired aged rats, vs vehicle treated; FIG. 1
Procedure: Membrane preparation: Rats were decapitated and the hippocampus was dissected on ice then frozen at −80° C. All the tissue was stored in −80° C. and processed for GTP-Eu binding. For the GTP-Eu binding assay, membranes were prepared from frozen tissue by gentle homogenization with a Dounce homogenizer in five volumes of ice-cold 50 mM Tris buffer, pH 7.4, containing 0.2 mM EGTA and protease inhibitors. After centrifuging at 40,000×g at 4° C. for 10 min, the pellets were resuspended in 30 ml of ice-cold Tris buffer. The steps described above were repeated twice, and then the final pellets were resuspended in assay buffer (50 mM Tris, 0.2 mM EGTA, 5 mM MgCl2, and 100 mM NaCl, pH 7.4) (Zhang et al 2007).
Muscarinic receptor-stimulated GTP-Eu binding assay. GTP-Eu binding was assessed using time-resolved fluorescence (Wallac 1420, Perkin-Elmer). The membranes and all the reagents were diluted with assay buffer. Samples were added into a 96-well filter plate in a counter-balanced manner based upon age and behavioral performance, although the experimenter was blind to the identification of the groups at the time of the assay. […] The integration of GTP-Eu into the membrane was measured by excitation of the samples at 340 nm and reading the emission at 615 nm using time-resolved fluorescence (Zhang et al 2007, Nicolle et al 1999). […]

## CCCC(CCC)C(=O)[O-].[Na+] [VPA, sodium valproate]
[1]; VPA only, 100 mg/kg/day chronic s.c. minipump, FIG. 3, 100 mg/kg/day
  spatial memory retention in 24-hr retention trial: no improvement seen
[2]
  blood total VPA level: 10 μg/ml plasma
[3]; VPA 100 mg/kg/day chronic s.c. minipump, vs saline or VPA 50 mg/kg/day
  memory retention (forgetting, path length) after a 6-hr delay: showed less forgetting; also recorded: improved the performance
[3]; chronic s.c. minipump, Trials 1-6, compared with saline
  performance (path length) at the end of the training phase: performed at a comparable level
[4]
  muscarinic receptor-stimulated GTP-Eu binding in the hippocampus (percentage of young rat): effectively restore post-synaptic muscarinic coupling; also recorded: increases muscarinic receptor-GTP-Eu binding

## COc1cc2c(cc1OC)C(=O)C(CC1CCN(Cc3ccccc3)CC1)C2 (stereo not shown) [donezepil, donepezil]
[1]; FIG. 3
  spatial memory retention (time in target quadrant) in 24-hr retention trial: did not significantly improve
[1]; FIG. 3, listed as Donezepil
  spatial memory retention (time in target quadrant) in 24-hr retention trial: no effect
